Publication PMC10675785, “(L)-Monomethyl Tyrosine (Mmt): New Synthetic Strategy via Bulky ‘Forced-Traceless’ Regioselective Pd-Catalyzed C(sp^2)–H Activation” (Pharmaceuticals, 2023)

Target: human NOP receptor (Homo sapiens, UniProt P41146)
Experiment: Calcium mobilization assay in CHO cells stably coexpressing the NOP receptor and the Gαqi5 chimeric G protein
Conditions: CHOhNOP + Gαqi5 cells; Fluo-4 AM, FlexStation II, 37 °C; four-parameter logistic fit; mean of 5 or at least 6 experiments in duplicate
Procedure: Drugs and reagents: The reagents used were purchased from Sigma-Aldrich (St. Louis, MO, USA) and Thermo Fisher Scientific (Waltham, MA, USA). […] Concentrated solutions of ligands were made in distilled water (1 mM) and kept at −20 °C until use. Successive dilutions of ligands were made in Hank’s Balanced Salt Solution (HBSS) and HEPES buffer (containing 0.005% Bovine Serum Albumine (BSA)).
Cell Culture: Chinese Hamster Ovary (CHO) cells stably coexpressing the NOP opioid receptors and the Gαqi5 protein were used. […]
Calcium Mobilization Assay: Calcium mobilization studies were performed using the automated fluorometer microplate reader FlexStation II (Molecular Devices, Sunnyvale, CA, USA), which was employed to detect changes in fluorescence intensity. […] After placing both plates (cell culture and compound plate) into the fluorometric imaging plate reader FlexStation II, fluorescence changes were measured. […] Maximum change in fluorescence, expressed as percent over the baseline fluorescence, was used to determine agonist response.
Data analysis and terminology: All data were analyzed using Graph Pad Prism 6.0 (La Jolla, CA, USA). […] Data were expressed as mean ± sem of 5 experiments performed in duplicate. Agonist effects were expressed as the maximum change in percent over the baseline fluorescence. Baseline fluorescence was measured in wells treated with vehicles. […]

Chain of human NOP receptor (P41146 whole entry): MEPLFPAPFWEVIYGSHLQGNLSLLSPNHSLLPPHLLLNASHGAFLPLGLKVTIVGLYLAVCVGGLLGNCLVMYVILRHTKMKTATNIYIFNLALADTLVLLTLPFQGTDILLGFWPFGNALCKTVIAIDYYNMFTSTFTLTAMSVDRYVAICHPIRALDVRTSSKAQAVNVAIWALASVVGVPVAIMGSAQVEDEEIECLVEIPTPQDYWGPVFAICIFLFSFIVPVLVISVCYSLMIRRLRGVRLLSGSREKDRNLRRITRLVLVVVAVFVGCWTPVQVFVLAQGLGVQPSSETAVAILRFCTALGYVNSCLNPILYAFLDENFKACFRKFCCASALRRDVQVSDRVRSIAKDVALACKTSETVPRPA

[Dmt^1]N/OFQ(1-13)-NH2
pEC50 (CL95%): 8.35 (7.94–8.77)
